Data: patent US20060246005A1, “Poly(peptide) as a chelator: methods of manufacture and uses” (THE BOARD OF REGENTS OF THE UNIVERSITY OF TEXAS SYSTEM, priority 2005, published 2006)

Test system: mammary tumor derived from RBA CRL-1747 cell line
Assay: Scintigraphic (planar) imaging in breast tumor-bearing rats
Format: in vivo, rat
Settings: 0.5-4 hrs post-injection
Excerpt: The camera field of view is 20 cm×20 cm with an edge of 1.3 cm. The intrinsic spatial resolution is 3 mm and the matrix is 64×64.
To ascertain whether the tumor uptake by with ^99mTc-GAP-EDL was related to estrogen receptors, we performed a blocking study. […] Computer outlined regions of interest (ROI) (counts per pixel) were used to determine tumor-to-background count density ratios.
Scintigraphic images were obtained at 0.5-4.0 hrs after i.v. injection of ^99mTc-GAP-COX2i (300 μCi/rat, iv) and imaged at 0.5-4.0 hrs in mammary tumor-bearing rats (derived from RBA CRL-1747 cell line). Whole-body autoradiograms were obtained by a quantitative image analyzer (Cyclone Storage Phosphor System, Packard, Meridian, Conn.). Following intravenous injection of ^99mTc-GAP-COX2i (100 μCi/rat, iv), athymic nude mice bearing human uterine sarcoma in the right leg were killed at 1 hour and the body was fixed in carboxymethyl cellulose (3%). […] Each section was thawed and mounted on a slide. […]
Scintigraphic images were obtained at 0.5-4.0 hrs after i.v. injection of ^99“Tc-GAP-LAS or GAP-HCD (300 μCi/rat, iv) and imaged at 0.5-4.0 hrs in mammary tumor-bearing rats (derived from RBA CRL-1747 cell line). Whole-body autoradiogramrs were obtained by a quantitative image analyzer (Cyclone Storage Phosphor System, Packard, Meridian, Conn.). […]

In the case of `O=C([O-])CN(CCN(CC(=O)[O-])CC(=O)[O-])CCN(CC(=O)[O-])CC(=O)[O-].[99Tc+4]` [^99mTc-DTPA], the “tumor visualization on scintigraphic images” value was “tumor could be visualized”.
